We go through two molecules from patent US7175990B2, “Method of determining endometrial receptivity” (The Regents of the University of California, priority 2002, dated 2007).

Experiment [1] relates to hatched mouse blastocysts. Nature of the experiment: Binding of selectin ligand-coated beads to hatched mouse blastocysts under shear stress. The following applies: neoglycolipid-coated 4-μm polystyrene beads. The class given is cell-based.
Experiment [2] has as its system explants of the human chorionic villous tree (trophoblast L-selectin). Nature of the experiment: Binding of selectin ligand-coated beads to first-trimester villous explant cultures under shear stress. Type of experiment: cell-based. The conditions noted are these: neoglycolipid-coated beads; cytotrophoblast column remnants and syncytiotrophoblasts. The procedure:
Neoglycolipids were prepared by reductive amination of dipalmitoyl phosphatidylacetaldehyde with the aminoethyl glycoside of either sLe^x or 6-sulfo sLe^x 30 and dissolved in methanol (1 μg/μl). Blue 4-μm polystyrene latex beads (Interfacial Dynamics Corporation) were washed three times with ethanol, then resuspended in this solvent (1.2×10^8 beads/200 μl). Twenty-five micrograms of glycolipid was added, and the mixture was evaporated under nitrogen. Coated beads were washed three times in 1% BSA/PBS, then incubated with 3% BSA/PBS (2 h, room temperature). The beads were resuspended in 1 ml of 1% BSA/culture medium. Control beads were coated with phosphatidyl choline or used without coating.
Forty-eight first-trimester villous explant cultures were established (4 from 12 placentas; 2 experiments). After 24 h, the culture medium was removed, and 200 μl of a suspension of 2.4×10^7 beads in medium was added. Six explants were incubated with either experimental or control beads. Six other explants were pre-incubated with DREG-56 (30 min), then washed three times with medium before adding 6-sulfo sLe^x-coated beads. The explants were placed inside an incubator on a platform shaker (1 h; 20 cycles/min). Afterwards, bead suspensions were aspirated and explants were fixed in 3.8% paraformaldehyde (1 h, room temperature), washed three times in PBS (4° C.), and examined with a stereomicroscope. […]

For the next experiment, the system named is L-selectin. The following applies: compared with sLe^x; cited from earlier work.

For the molecule `CC(=O)NC1C(O)CC(OC2C(O)C(CO)OC(OC3C(CO)OC(O)C(NC(C)=O)C3OC3OC(C)C(O)C(O)C3O)C2O)(C(=O)O)OC1C(O)C(O)CO` (centres unmarked) [sLe^x, Siaα2→3Galβ1→4[Fucα1→3]GlcNAc], in experiment [1], the “binding of ligand-coated beads to hatched mouse blastocysts” value was “bound”. The “binding of ligand-coated beads to human villus explants / trophoblasts” value in experiment [2] is “in fewer numbers”.
For “Siaα2→3Galβ1→4[Fucα1→3][SO3→6]GlcNAc [6-sulfo sLe^x]”, the “tightness of L-selectin binding, 6-sulfo sLe^x versus sLe^x” value in the experiment with L-selectin is reported as “more tightly”. The “binding of ligand-coated beads to hatched mouse blastocysts” value in experiment [1] was “bound”. Besides, the “binding of ligand-coated beads to human villus explants / trophoblasts” value in experiment [2] was “bound”.
